Measurements: paper PMC4955201, “α-Glucosidase inhibitors from the bark of Mangifera mekongensis” (Chemistry Central Journal, 2016)
Read-outs that look alike come from different tables or passages of the source.

Target: T1, α-Glucosidase (EC 3.2.1.20) from Saccharomyces cerevisiae (Saccharomyces cerevisiae, UniProt P53341)
T1 construct: purchased Sigma Chemical Co. (St. Louis, MO, USA)
Assay: biochemical
Type: biochemical
Conditions: for inhibition at 50 µM / inhibition at 100 µM / inhibition at 250 µM / inhibition at 10 µM / inhibition at 25 µM / inhibition at 1 µM / inhibition at 2.5 µM / inhibition at 5 µM: read-out: Inhibition (I %); for α-glucosidase inhibitory activity (in words): tested at 1 to 250 µM
Experimental: α-Glucosidase (EC 3.2.1.20) from Saccharomyces cerevisiae (750 UN) and p-nitrophenyl-α-D-glucopyranoside were obtained from Sigma Chemical Co. (St. Louis, MO, USA). […] Silica gel 60, 40–63 µm (230–400 mesh ASTM), for column chromatography was purchased from Scharlau (Barcelona, Spain). Analytical and preparative TLC were carried out on precoated Kiesegel 60F254 or RP-18F254 plates (0.25 or 0.5 mm thickness) (Merck, Germany). Other chemicals were of the highest grade available.
The inhibitory activity of α-glucosidase was determined according to the modified method of Kim et al.. 3 mM p-nitrophenyl-α-D-glucopyranoside (25 μL) and 0.2 U/mL α-glucosidase (25 μL) in 0.01 M phosphate buffer (pH = 7.0) were added to the sample solution (625 μL) to start the reaction. Each reaction was carried out at 37 °C for 30 min and stopped by adding 0.1 M Na2CO3 (375 μL). […] One unit of α-glucosidase activity was defined as amount of enzyme liberating p-nitrophenol ([…]) per min.

[1] = isolated compounds, pH 7.0, 37 °C, 30 min, read-out: α-Glucosidase inhibitory activity IC50

T1 sequence (P53341 whole entry): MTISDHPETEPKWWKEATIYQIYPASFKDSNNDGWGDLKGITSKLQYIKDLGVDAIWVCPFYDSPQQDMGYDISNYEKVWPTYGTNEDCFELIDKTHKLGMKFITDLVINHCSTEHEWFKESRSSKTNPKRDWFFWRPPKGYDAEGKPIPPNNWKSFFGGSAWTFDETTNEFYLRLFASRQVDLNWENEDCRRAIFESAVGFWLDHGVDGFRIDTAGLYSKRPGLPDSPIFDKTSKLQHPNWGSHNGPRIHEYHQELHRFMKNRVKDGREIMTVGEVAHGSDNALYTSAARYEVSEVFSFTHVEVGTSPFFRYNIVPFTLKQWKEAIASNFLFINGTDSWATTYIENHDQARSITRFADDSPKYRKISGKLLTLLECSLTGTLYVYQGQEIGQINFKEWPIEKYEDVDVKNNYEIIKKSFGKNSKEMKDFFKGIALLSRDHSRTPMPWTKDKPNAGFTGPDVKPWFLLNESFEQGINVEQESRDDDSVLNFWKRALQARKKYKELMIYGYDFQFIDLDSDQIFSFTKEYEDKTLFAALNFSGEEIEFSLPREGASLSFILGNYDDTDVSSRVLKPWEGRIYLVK

SMILES: C[C@H]1O[C@H](O[C@H]2[C@H](O)[C@@H](O)[C@@H](O[C@H]3[C@H](O)[C@@H](O)C(O)O[C@@H]3CO)O[C@@H]2CO)[C@H](O)[C@@H](O)[C@@H]1N[C@H]1C=C(CO)[C@@H](O)[C@H](O)[C@H]1O (stereo partly shown) [Acarbose, reference compound]
- inhibition at 50 µM: 9.8 ± 1.1%
- inhibition at 100 µM: 21.2 ± 2.2%
- inhibition at 250 µM: 59.8 ± 1.2%

SMILES: CCCCCCCCCCCCCCCCCCC(=O)OC1CCC2(C)C(=CCC3C2CCC2(C)C(C(C)CCC(CC)C(C)C)CCC32)C1 (stereo not drawn) [Compound 1, 3β-nonadecanoylsitosterol]
- IC50 [1]: 27.7 µM
- inhibition at 10 µM: 24.4 ± 1.8%
- inhibition at 25 µM: 38.6 ± 1.2%
- inhibition at 50 µM: 67.7 ± 1.4%
- inhibition at 100 µM: 91.8 ± 1.1%

SMILES: CCC(CCC(C)C1CCC2C3CC=C4CC(OC(=O)CCCCCCCC(=O)O)CCC4(C)C3CCC12C)C(C)C (stereo not drawn) [Compound 2, 3β-(8-carboxyoctanoyl)sitosterol]
- IC50 [1]: 2.5 µM
- inhibition at 1 µM: 15.2 ± 1.2%
- inhibition at 2.5 µM: 50.8 ± 1.1%
- inhibition at 5 µM: 82.6 ± 1.4%
- inhibition at 10 µM: 93.1 ± 1.2%

SMILES: CC[C@H](CC[C@@H](C)[C@H]1CC[C@H]2[C@@H]3CC=C4C[C@@H](O)CC[C@]4(C)[C@H]3CC[C@]12C)C(C)C [Compound 3, β-sitosterol]
- IC50 [1]: > 250 µM
- α-glucosidase inhibitory activity (in words): inactive

SMILES: CC[C@H](CC[C@@H](C)[C@H]1CC[C@H]2[C@@H]3CC(=O)C4CC(=O)CC[C@]4(C)[C@H]3CC[C@]12C)C(C)C (stereo partly shown) [Compound 4, stigmastane-3,6-dione]
- IC50 [1]: > 250 µM
- α-glucosidase inhibitory activity (in words): inactive

SMILES: CCCCCCCCCCCCCCCC(=O)OC[C@H]1O[C@@H](O[C@H]2CC[C@@]3(C)C(=CC[C@H]4[C@@H]5CC[C@H]([C@H](C)CC[C@@H](CC)C(C)C)[C@@]5(C)CC[C@@H]43)C2)[C@H](O)[C@@H](O)[C@@H]1O [Compound 5, β-sitosteryl-3-O-β-D-glucopyranosyl-6′-O-palmitate]
- IC50 [1]: 21.1 µM
- inhibition at 10 µM: 32.1 ± 2.3%
- inhibition at 25 µM: 49.7 ± 3.1%
- inhibition at 50 µM: 75.9 ± 2.6%
- inhibition at 100 µM: 90.9 ± 1.4%

SMILES: CC(=CCCC(C)C1CCC2(C)C3CCC4C(C)(C)C(=O)CCC45CC35CCC12C)C(=O)O (stereo not shown) [Compound 8, ambonic acid]
- IC50: 1.2 µM
- inhibition at 1 µM: 46.5 ± 1.1%
- inhibition at 2.5 µM: 62.5 ± 1.1%
- inhibition at 5 µM: 78.4 ± 1.6%
- inhibition at 10 µM: 87.5 ± 1%

SMILES: CC(=CCCC(C)C1CCC2(C)C3CCC4C(C)(C)C(O)CCC45CC35CCC12C)C(=O)O (stereo not shown) [Compound 9, ambolic acid]
- IC50: 112 µM
- inhibition at 50 µM: 15.9 ± 1.1%
- inhibition at 100 µM: 32.2 ± 1%
- inhibition at 250 µM: 95.9 ± 1%
